Data taken from patent US10251902B2, “Pharmaceutical composition for treating or preventing neuropsychiatric disease, containing flavone-6-C-glucose derivatives as active ingredients” (priority 2013, dated 2019).

What was measured:
Assay type in all cases: in vivo, ICR mice
mouse model of stroke = experiment: Y-maze test in mouse model of stroke; conditions: for Alternation Behavior (%): Table 11, test on 7th day; for Total Entry: Table 12
Protocol: (§1) Seven-week old ICR mice in about 30 g to 35 g (Orientbio Inc, Republic of Korea) were received water and feed without constraint and adapted for 5 days under an environment having about 23±1° C. of temperature, about 60±10% of humidity and 12-hour light/dark cycle (animal laboratory at College of Pharmacy, Kyung-Hee University), and then used for the experiment.
(§2) The laboratory animal in 1) was located in an operating room, adapted for 60 minutes, and anesthetized in a space providing anaesthetic gasses (nitrous oxide: 70%; oxygen: 30%; isoflurane: 2.0%). Pain reflex was examined to confirm the anesthesia. The laboratory animal was lain down straight on an operating table, and fixed its upper limb and head. Skin from the spot, where the upper limb and the center line meet, was incised as 1.5 cm to expose the both common carotid arteries by using tweezers while not damaging the tissues. Tissues and nerves attached to the exposed carotid arteries were separated and fixed with an aneurysm clip. The clip was removed after 15 minutes and reperfused, and the incised area was sutured with sutures. After the suture, the laboratory animal was immediately moved to a recovery room (32-33° C., O2 enrichment condition) and kept until it recovers from anesthesia. Observation on its weight and status was conducted once a day for 4 days after the operation.
Administration of the Swertia japonica extract prepared in Example 1 was initiated to the mice prepared in the 1) immediately after the operation 3), and kept administering at the same time for 7 days. Five groups (5 mice per each group) were prepared as drug administration groups 1, 2 and 3, wherein the Swertia japonica extract prepared in Example 1 was administered thereto; and controls 1 and 2. 50 mg/kg, 100 mg/kg and 200 mg/kg of the Swertia japonica extract was administered to the drug administration groups 1, 2 and 3 respectively; and 0.15 mL of Tween 80 was administered to the controls 1 and 2 respectively. At the 7th day from the initial administration, the Y-maze test was conducted for the drug administration groups 1 to 3 and the controls 1 to 2 in the same manner as Experimental Example 1-5.
After 60 minutes, mice of the drug administration groups 1-3 and the controls 1-2 were carefully located on each branches of the Y-maze, which was divided as A, B and C respectively, and let the mice move freely for 8 minutes, and then recorded branches that mice have entered. The entrance was recorded when the entire body (i.e. including the tail) has completely entered. It was also recorded when the mice entered again into the branch that the mice have entered before. The result was converted into % via Equation 1.
Administration of swertisin prepared in Example 3 was initiated to the mice prepared in 1) immediately after the operation 3), and kept administering at the same time for 7 days. Five groups (5 mice per each group) were prepared as drug administration groups 1, 2 and 3, wherein swertisin prepared in Example 3 was administered thereto; and controls 1 and 2. 50 mg/kg, 100 mg/kg and 200 mg/kg of swertisin was administered to the drug administration groups 1, 2 and 3 respectively; and 0.15 mL of Tween 80 was administered to the controls 1 and 2 respectively. At the 7th day from the initial administration, the Y-maze test was conducted for the drug administration groups 1 to 3 and the controls 1 to 2 in the same manner as Experimental Example 1.

[1] = system: brain cells in the hippocampal region, mouse model of stroke; experiment: Neurological scoring of hippocampal brain cell damage (Nissl staining) in mouse model of stroke; conditions: for Neurological Score: Table 13, score 0-3 points of hippocampal damage
Protocol: as §1, §2
Meanwhile, upon termination of the Y-maze test, a 4% paraformaldehyde fixation was conducted on the drug administration groups 1-3 and the control 2, and brain was excised. Paraformaldehyde-fixed brain sample was washed and section having 30 μm of thickness was prepared therefrom. The Nissl staining, which can stain a native region of brain cells in normal status, was performed. Brain cell damage in the hippocampal region of the drug administration groups 1-3, wherein the Swertia japonica extract prepared in Example 1 was administered, and the controls 1 and 2 was assessed through a neurological scoring. Pertaining to the evaluation standard, 0 point was scored when there was no damage on the hippocampal region; 1 point for 0-30% of damage; 2 points for 30-60% of damage; and 3 points for 60-100% of damage. The points were scored by 3 people who have no knowledge of the drug administration groups and the controls. Average point was used to calculate the degree of damage.
Upon termination of the Y-maze test, the drug administration groups 1-3 and the control 2 were sacrificed to prepare the brain section, and the Nissl staining was conducted to evaluate brain cell damage in the hippocampal region of the drug administration groups 1-3, wherein swertisin prepared in Example 3 was administered, and the controls 1 and 2 through the neurological scoring.

[2] = system: pentobarbital-induced sleep; experiment: Sleep-inducing test (pentobarbital); conditions: swertisin 10 mg/kg
Protocol: as §1, with “Six-week” for “Seven-week”, “26” for “30”, “28” for “35”, “experiment. Foods were blocked at 24 hours before the test.” for “experiment.”
The mice prepared in 1) were divided into […] (10 mice per each group) including the drug administration group 1, wherein swertisin was administered, and the controls 1 and 2. Swertisin prepared in Example 3 was dissolved in 10% Tween 80 (Polyoxyethylene sorbitan monooleate: Sigma, U.S.A.) and administered to the drug administration group 1 in an amount of 10 mg/kg. Meanwhile, 0.15 mL of 10% Tween 80 was administered to the control 1.
After 1 hour of administration, pentobarbital was dissolved in a saline solution and intraperitoneally administered to the mouse in an amount of 60 mg/kg. The mouse was located in the cage. At this time, straw was laid in the cage only enough to cover the floor, and only one mouse was located in the cage for observation. […]

[3] = swertisin 50 mg/kg for 7 days after stroke operation
[4] = swertisin 100 mg/kg for 7 days after stroke operation
[5] = swertisin 200 mg/kg for 7 days after stroke operation

In the case of COc1cc2oc(-c3ccc(O)cc3)cc(=O)c2c(O)c1[C@@H]1O[C@H](CO)[C@@H](O)[C@H](O)[C@H]1O [swertisin], the “Alternation Behavior (%)” value (mouse model of stroke; [3]) was 56.10 ± 7.431%, the “Alternation Behavior (%)” value (mouse model of stroke; [4]) was 57.58 ± 12.86% and the “Alternation Behavior (%)” value (mouse model of stroke; [5]) was 70.46 ± 15.74%. The “Total Entry” value (mouse model of stroke; [3]) was 24.14 ± 2.478, the “Total Entry” value (mouse model of stroke; [4]) was 28.50 ± 6.364 and the “Total Entry” value (mouse model of stroke; [5]) was 22.00 ± 5.958. The “Neurological Score” value ([1]; swertisin 50 mg/kg for 7 days) was 1.8130 ± 0.3750, the “Neurological Score” value ([1]; swertisin 100 mg/kg for 7 days) was 1.2500 ± 0.2500 and the “Neurological Score” value ([1]; swertisin 200 mg/kg for 7 days) was 1.1670 ± 0.5204. The “neurological score, in words” value ([1]; swertisin 200 mg/kg (drug administration group 3) versus stroke-induced group) was “significant result to the stroke-induced group”, the “total sleep time compared to the control 1, in words” value ([2]; pentobarbital 60 mg/kg i.p.) was “remarkably decreased” and the “Total Sleep Time” value ([2]; pentobarbital 60 mg/kg i.p. 1 hour after administration) was 94.47 ± 21.83 min.
